Test results taken from patent publication US20240109917A1 (ACTELION PHARMACEUTICALS LTD, priority 2020, published 2024).
pIC50: −log10 of the molar value.

Molecular target: VEGFR2, unphosphorylated (Homo sapiens (Human), UniProt P35968)
Assay: VEGFR ADP GLO Assay
Format: biochemical

Chain of VEGFR2, unphosphorylated (P35968 20-1356): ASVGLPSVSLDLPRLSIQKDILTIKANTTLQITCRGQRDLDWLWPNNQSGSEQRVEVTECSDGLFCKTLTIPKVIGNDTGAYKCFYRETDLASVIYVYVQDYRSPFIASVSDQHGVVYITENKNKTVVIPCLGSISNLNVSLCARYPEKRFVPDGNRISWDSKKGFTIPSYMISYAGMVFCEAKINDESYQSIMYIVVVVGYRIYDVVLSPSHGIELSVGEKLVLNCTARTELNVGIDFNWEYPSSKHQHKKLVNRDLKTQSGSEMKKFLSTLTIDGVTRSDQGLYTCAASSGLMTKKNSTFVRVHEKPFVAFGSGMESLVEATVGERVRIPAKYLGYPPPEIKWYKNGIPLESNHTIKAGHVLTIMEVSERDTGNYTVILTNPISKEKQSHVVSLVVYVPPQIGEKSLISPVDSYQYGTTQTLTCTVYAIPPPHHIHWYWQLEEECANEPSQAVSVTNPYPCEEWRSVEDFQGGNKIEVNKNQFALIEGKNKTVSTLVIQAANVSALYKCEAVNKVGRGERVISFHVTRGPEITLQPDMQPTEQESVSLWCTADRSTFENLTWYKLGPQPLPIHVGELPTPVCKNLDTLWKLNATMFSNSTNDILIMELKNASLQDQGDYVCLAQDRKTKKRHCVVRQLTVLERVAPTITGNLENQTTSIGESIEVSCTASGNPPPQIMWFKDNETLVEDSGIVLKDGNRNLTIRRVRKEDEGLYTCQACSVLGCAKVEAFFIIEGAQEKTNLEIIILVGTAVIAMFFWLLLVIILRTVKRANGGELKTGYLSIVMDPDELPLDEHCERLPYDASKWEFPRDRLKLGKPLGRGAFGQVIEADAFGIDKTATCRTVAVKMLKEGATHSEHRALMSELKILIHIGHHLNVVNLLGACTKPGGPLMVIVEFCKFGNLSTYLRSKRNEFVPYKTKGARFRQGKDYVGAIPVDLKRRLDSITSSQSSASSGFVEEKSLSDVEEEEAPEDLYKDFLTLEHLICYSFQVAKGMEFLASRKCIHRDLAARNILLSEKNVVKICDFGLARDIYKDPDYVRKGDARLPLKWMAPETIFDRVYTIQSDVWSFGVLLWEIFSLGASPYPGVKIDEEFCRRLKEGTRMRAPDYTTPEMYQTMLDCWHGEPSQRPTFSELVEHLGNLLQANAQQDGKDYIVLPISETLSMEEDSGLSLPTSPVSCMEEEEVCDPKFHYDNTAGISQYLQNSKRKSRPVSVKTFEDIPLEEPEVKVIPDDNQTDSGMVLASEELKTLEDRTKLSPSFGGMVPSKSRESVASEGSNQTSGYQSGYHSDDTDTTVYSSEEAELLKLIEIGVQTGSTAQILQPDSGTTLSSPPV

Row | SMILES | pIC50
1 | Cc1ncc(C(=O)NCC2CCCN2C)cc1NC(=O)c1cnn2cc(-c3cnn4c3CCC4)sc12 (stereo not shown) [Example 469, 2-(5,6-dihydro-4H-pyrrolo[1,2-b]pyrazol-3-yl)-N-(2-methyl-5-(((1-methylpyrrolidin-2-yl)methyl)carbamoyl)pyridin-3-yl)pyrazolo[5,1-b]thiazole-7-carboxamide] | < 5.12
2 | Cc1ncc(NC(=O)CN2CC(C)(C)C2)cc1NC(=O)c1cnn2cc(-c3cccnc3OC(F)(F)F)sc12 [Example 437, N-(5-(2-(3,3-dimethylazetidin-1-yl)acetamido)-2-methylpyridin-3-yl)-2-(2-(trifluoromethoxy)pyridin-3-yl)pyrazolo[5,1-b]thiazole-7-carboxamide] | < 5.12
3 | Cc1ncc(NC(=O)CN2CCC[C@@H]2C)cc1NC(=O)c1cnn2cc(-c3cnn4c3CCC4)sc12 [Example 416, (S)-2-(5,6-dihydro-4H-pyrrolo[1,2-b]pyrazol-3-yl)-N-(2-methyl-5-(2-(2-methylpyrrolidin-1-yl)acetamido)pyridin-3-yl)pyrazolo[5,1-b]thiazole-7-carboxamide] | < 5.12
4 | Cc1ncc(NC(=O)CN2CC(C)(C)C2)cc1NC(=O)c1cnn2cc(-c3cnn(C)c3C)sc12 [Example 434, 2-(1,5-Dimethyl-1H-pyrazol-4-yl)-N-(5-(2-(3,3-dimethylazetidin-1-yl)acetamido)-2-methylpyridin-3-yl)pyrazolo[5,1-b]thiazole-7-carboxamide] | 5.28
5 | Cc1ncc(C(=O)NCCN2CCCC23CCC3)cc1NC(=O)c1cnn2cc(-c3cnn4c3CCC4)sc12 [Example 461, N-(5-((2-(5-azaspiro[3.4]octan-5-yl)ethyl)carbamoyl)-2-methylpyridin-3-yl)-2-(5,6-dihydro-4H-pyrrolo[1,2-b]pyrazol-3-yl)pyrazolo[5,1-b]thiazole-7-carboxamide] | 5.48
6 | COCCn1cc(-c2cn3ncc(C(=O)Nc4cc(NC(=O)CCN5CCCC5(C)C)cnc4C)c3s2)cn1 [Example 41, N-(5-(3-(2,2-dimethylpyrrolidin-1-yl)propanamido)-2-methylpyridin-3-yl)-2-(1-(2-methoxyethyl)-1H-pyrazol-4-yl)pyrazolo[5,1-b]thiazole-7-carboxamide] | < 5.12
7 | Cc1ncc(NC(=O)CN2CCCC2(C)C)cc1NC(=O)c1cnn2cc(-c3cnn(CCO)c3)sc12 [Example 447, N-(5-(2-(2,2-dimethylpyrrolidin-1-yl)acetamido)-2-methylpyridin-3-yl)-2-(1-(2-hydroxyethyl)-1H-pyrazol-4-yl)pyrazolo[5,1-b]thiazole-7-carboxamide] | < 5.12
8 | Cc1ncc(NC(=O)CNC2CCC2)cc1NC(=O)c1cnn2cc(-c3cnn4c3CCC4)sc12 [Example 471, N-(5-(2-(cyclobutylamino)acetamido)-2-methylpyridin-3-yl)-2-(5,6-dihydro-4H-pyrrolo[1,2-b]pyrazol-3-yl)pyrazolo[5,1-b]thiazole-7-carboxamide] | < 5.12
9 | Cc1ncc(NC(=O)CC2CNC2)cc1NC(=O)c1cnn2cc(-c3cnn4c3CCC4)sc12 [Example 426, N-(5-(2-(azetidin-3-yl)acetamido)-2-methylpyridin-3-yl)-2-(5,6-dihydro-4H-pyrrolo[1,2-b]pyrazol-3-yl)pyrazolo[5,1-b]thiazole-7-carboxamide] | < 5.12
10 | CCCNCC(=O)Nc1cnc(C)c(NC(=O)c2cnn3cc(-c4cnn5c4CCC5)sc23)c1 [Example 456, 2-(5,6-dihydro-4H-pyrrolo[1,2-b]pyrazol-3-yl)-N-(2-methyl-5-(2-(propylamino)acetamido)pyridin-3-yl)pyrazolo[5,1-b]thiazole-7-carboxamide] | < 5.12
11 | Cc1ncc(NC(=O)CC2CN(C)C2)cc1NC(=O)c1cnn2cc(-c3cnn4c3CCC4)sc12 [Example 468, 2-(5,6-dihydro-4H-pyrrolo[1,2-b]pyrazol-3-yl)-N-(2-methyl-5-(2-(1-methylazetidin-3-yl)acetamido)pyridin-3-yl)pyrazolo[5,1-b]thiazole-7-carboxamide] | < 5.12
12 | Cc1ncc(NC(=O)CN2CCC[C@H]2C)cc1NC(=O)c1cnn2cc(-c3nn(C)nc3C)sc12 [Example 443, (R)-2-(2,5-dimethyl-2H-1,2,3-triazol-4-yl)-N-(2-methyl-5-(2-(2-methylpyrrolidin-1-yl)acetamido)pyridin-3-yl)pyrazolo[5,1-b]thiazole-7-carboxamide] | < 5.12
13 | COC1CN(CC(=O)Nc2cnc(C)c(NC(=O)c3cnn4cc(-c5cn(C)nc5C)sc34)c2)C1 [Example 441, 2-(1,3-Dimethyl-1H-pyrazol-4-yl)-N-(5-(2-(3-methoxyazetidin-1-yl)acetamido)-2-methylpyridin-3-yl)pyrazolo[5,1-b]thiazole-7-carboxamide] | < 5.12
14 | Cc1ncc(C(=O)NCCN2CC(C)(C)C2)cc1NC(=O)c1cnn2cc(-c3cnn4c3OCCC4)sc12 [Example 479, 2-(6,7-dihydro-5H-pyrazolo[5,1-b][1,3]oxazin-3-yl)-N-(5-((2-(3,3-dimethylazetidin-1-yl)ethyl)carbamoyl)-2-methylpyridin-3-yl)pyrazolo[5,1-b]thiazole-7-carboxamide] | < 5.12
15 | Cc1ncc(NC(=O)CN2CCCC2(C)C)cc1NC(=O)c1cnn2cc(-c3cccn(CCF)c3=O)sc12 [Example 449, N-(5-(2-(2,2-dimethylpyrrolidin-1-yl)acetamido)-2-methylpyridin-3-yl)-2-(1-(2-fluoroethyl)-2-oxo-1,2-dihydropyridin-3-yl)pyrazolo[5,1-b]thiazole-7-carboxamide] | < 5.12
16 | Cc1ncc(NC(=O)CN2CCCC23CCC3)cc1NC(=O)c1cnn2cc(-c3cnn4c3COCC4)sc12 [Example 417, N-(5-(2-(5-azaspiro[3.4]octan-5-yl)acetamido)-2-methylpyridin-3-yl)-2-(6,7-dihydro-4H-pyrazolo[5,1-c][1,4]oxazin-3-yl)pyrazolo[5,1-b]thiazole-7-carboxamide] | < 5.12
17 | Cc1ncc(NC(=O)CN2CC(C)(C)C2)cc1NC(=O)c1cnn2cc(-c3cnn4c3CCC4)sc12 [Example 409, 2-(5,6-dihydro-4H-pyrrolo[1,2-b]pyrazol-3-yl)-N-(5-(2-(3,3-dimethylazetidin-1-yl)acetamido)-2-methylpyridin-3-yl)pyrazolo[5,1-b]thiazole-7-carboxamide] | 5.47
18 | Cc1ncc(NC(=O)CN2CCC(C)C2)cc1NC(=O)c1cnn2cc(-c3cn(C)nc3C)sc12 (stereo not shown) [Example 446, 2-(1,3-Dimethyl-1H-pyrazol-4-yl)-N-(2-methyl-5-(2-(3-methylpyrrolidin-1-yl)acetamido)pyridin-3-yl)pyrazolo[5,1-b]thiazole-7-carboxamide] | < 5.12
19 | Cc1ncc(C(=O)NCCN2CCCC23CCC3)cc1NC(=O)c1cnn2cc(-c3cnn4c3COCC4)sc12 [Example 472, N-(5-((2-(5-azaspiro[3.4]octan-5-yl)ethyl)carbamoyl)-2-methylpyridin-3-yl)-2-(6,7-dihydro-4H-pyrazolo[5,1-c][1,4]oxazin-3-yl)pyrazolo[5,1-b]thiazole-7-carboxamide] | < 5.12
20 | COCCn1cc(-c2cn3ncc(C(=O)Nc4cc(NC(=O)C5(CN6CCC[C@@H]6C)CC5)cnc4C)c3s2)cn1 [Example 452, (S)-2-(1-(2-methoxyethyl)-1H-pyrazol-4-yl)-N-(2-methyl-5-(1-((2-methylpyrrolidin-1-yl)methyl)cyclopropanecarboxamido)pyridin-3-yl)pyrazolo[5,1-b]thiazole-7-carboxamide] | < 5.12
21 | Cc1ncc(NC(=O)CN2CC(C)(C)C2)cc1NC(=O)c1cnn2cc(-c3cnc4n3CCOC4)sc12 [Example 415, 2-(5,6-dihydro-8H-imidazo[2,1-c][1,4]oxazin-3-yl)-N-(5-(2-(3,3-dimethylazetidin-1-yl)acetamido)-2-methylpyridin-3-yl)pyrazolo[5,1-b]thiazole-7-carboxamide] | < 5.12
22 | Cc1ncc(NC(=O)CN2CC3(CCCCO3)C2)cc1NC(=O)c1cnn2cc(-c3cnn4c3CCC4)sc12 [Example 424, N-(5-(2-(5-oxa-2-azaspiro[3.5]nonan-2-yl)acetamido)-2-methylpyridin-3-yl)-2-(5,6-dihydro-4H-pyrrolo[1,2-b]pyrazol-3-yl)pyrazolo[5,1-b]thiazole-7-carboxamide] | < 5.12
23 | CCCNCC(=O)Nc1cnc(C)c(NC(=O)c2cnn3cc(-c4cnn5c4OCCC5)sc23)c1 [Example 455, 2-(6,7-dihydro-5H-pyrazolo[5,1-b][1,3]oxazin-3-yl)-N-(2-methyl-5-(2-(propylamino)acetamido)pyridin-3-yl)pyrazolo[5,1-b]thiazole-7-carboxamide] | < 5.12
24 | Cc1ncc(NC(=O)CN2CCC[C@@H]2C)cc1NC(=O)c1cnn2cc(-c3cnn4c3COCC4)sc12 [Example 473, (S)-2-(6,7-dihydro-4H-pyrazolo[5,1-c][1,4]oxazin-3-yl)-N-(2-methyl-5-(2-(2-methylpyrrolidin-1-yl)acetamido)pyridin-3-yl)pyrazolo[5,1-b]thiazole-7-carboxamide] | < 5.12
25 | Cc1ncc(NC(=O)CN2CC(C)(C)C2)cc1NC(=O)c1cnn2cc(-c3cn(C)nc3C)sc12 [Example 430, 2-(1,3-Dimethyl-1H-pyrazol-4-yl)-N-(5-(2-(3,3-dimethylazetidin-1-yl)acetamido)-2-methylpyridin-3-yl)pyrazolo[5,1-b]thiazole-7-carboxamide] | 5.29
